These results are taken from patent US8030547B2, “Gene coding for acetolactate synthase” (priority 2002, dated 2011).

Type in all cases: biochemical, Oryza sativa var. Kinmaze
For assay [1], the system named is mutant ALS protein of Vg line. The assay is described as follows: Herbicide sensitivity of partially purified ALS protein (ALS activity inhibition), Vg line. The following applies: I50 of the resistant mutant divided by I50 of the wild type. Here is the method: (§1) First, 200 g or more of resistant mutant was prepared by a liquid culture method (no supplementation with bispyribac-sodium), using a composition as shown in Table 3 excluding Gelrite. Then, about 150 g of the resistant mutant was homogenized using Hiscotron in a volume of buffer-1 [100 mM potassium phosphate buffer (pH 7.5) containing 20% (v/v) glycerol, […] thiamin pyrophosphate (TPP), 10 μM flavin adenine dinucleotide (FAD), 0.5 mM MgCl2, and a volume of polyvinyl polypyrrolidone one-tenth that of tissue volume] 3-fold greater than tissue volume. The homogenate was filtered through nylon gauze, and then centrifuged at 15000×g for 20 minutes. Ammonium sulfate was added to the centrifuged supernatant to 50% saturation, and then allowed to stand in ice for approximately 1 hour. The mixture was again centrifuged at 15000×g for 20 minutes, and then the precipitated fraction was dissolved in approximately 30 ml of buffer-2 [10 mM Tris hydrochloric acid buffer (pH 7.5) containing 20% (v/v) glycerol, 0.5 mM TPP and 0.5 mM MgCl2]. The mixture was again centrifuged at 15000×g for 20 minutes, and then the supernatant fraction was applied to a Sephadex G-25 (Amersham Bioscience). About 40 ml of the fraction that had passed through the column was collected as a crude enzyme solution.
(§2) Next, the protein concentration of the crude enzyme solution was measured by the Bradford method according to the manual of Bio-Rad Protein Assay. The crude enzyme solution was then filtered through a Whatman filter (Whatman), and then the crude enzyme solution in an appropriate protein amount (10 to 15 ml) was applied to three vertically-connected HiTrap Q columns (Amersham Bioscience) using a FPLC device (Amersham Bioscience). After protein component was adsorbed using HiTrap Q, unadsorbed fractions were washed out using buffer-2 having a volume 3 to 5 fold greater than the bed volume. Then, the adsorbed protein component was eluted using an eluate having a volume 10 fold greater than the bed volume (150 ml). Here, the eluate was prepared by dissolving KCl with a linear concentration gradient (0 to 0.4 M) into buffer-2. The eluate containing the eluted protein component was apportioned, 5 ml each, into a plurality of test tubes for apportioning. Further, to stabilize ALS protein contained in the eluted protein component, 0.5 ml of buffer-2 containing 20 mM sodium pyruvate had been previously added to each test tube for apportioning.
(§3) ALS activity resulting from the mutant ALS protein contained in the eluted fractions apportioned into each test tube for apportioning was measured as follows. A reaction solution to be used in a measurement reaction was prepared by mixing an eluted fraction to be measured with a solution comprising 20 mM sodium pyruvate, 0.5 mM TPP, 0.5 mM MgCl2, 10 μM FAD and 20 mM potassium phosphate buffer (pH 7.5). One ml of this reaction solution was used. After the eluted fraction to be measured was added, the measurement reaction was performed at 30° C. for 40 to 60 minutes. Then, the reaction was stopped by addition of 0.1 ml of 6N sulfuric acid (or 0.25 N sodium hydroxide).
(§4) After the reaction was stopped, the reaction solution was incubated at 60° C. for 10 minutes, thereby converting acetolactate contained in the reaction solution to acetoin.
(§5) Then, to quantify acetoin contained in the reaction solution, 1 ml of 0.5% (w/v) creatine and 1 ml of 5% (w/v) α-naphthol dissolved in 2.5 N sodium hydroxide was added to the reaction solution, followed by incubation at 37° C. for 10 minutes. Acetoin was then quantified by color comparison of the absorbance (at 525 nm) of the reaction solution, thereby evaluating ALS activity. In addition, since the reaction solution contained a small amount of sodium pyruvate, reaction time 0 was used as control.
(§6) Using the enzyme solution containing the mutant ALS protein, sensitivity of the mutant ALS protein to bispyribac-sodium, chlorsulfuron and imazaquin was examined. […]

Assay [2] deals with T1, mutant ALS protein of Vg line (Oryza sativa subsp. japonica, UniProt Q6K2E8).
T1 construct: other: partially purified ALS, 30° C., probit analysis
T1 sequence (Q6K2E8 whole entry W548L, form open): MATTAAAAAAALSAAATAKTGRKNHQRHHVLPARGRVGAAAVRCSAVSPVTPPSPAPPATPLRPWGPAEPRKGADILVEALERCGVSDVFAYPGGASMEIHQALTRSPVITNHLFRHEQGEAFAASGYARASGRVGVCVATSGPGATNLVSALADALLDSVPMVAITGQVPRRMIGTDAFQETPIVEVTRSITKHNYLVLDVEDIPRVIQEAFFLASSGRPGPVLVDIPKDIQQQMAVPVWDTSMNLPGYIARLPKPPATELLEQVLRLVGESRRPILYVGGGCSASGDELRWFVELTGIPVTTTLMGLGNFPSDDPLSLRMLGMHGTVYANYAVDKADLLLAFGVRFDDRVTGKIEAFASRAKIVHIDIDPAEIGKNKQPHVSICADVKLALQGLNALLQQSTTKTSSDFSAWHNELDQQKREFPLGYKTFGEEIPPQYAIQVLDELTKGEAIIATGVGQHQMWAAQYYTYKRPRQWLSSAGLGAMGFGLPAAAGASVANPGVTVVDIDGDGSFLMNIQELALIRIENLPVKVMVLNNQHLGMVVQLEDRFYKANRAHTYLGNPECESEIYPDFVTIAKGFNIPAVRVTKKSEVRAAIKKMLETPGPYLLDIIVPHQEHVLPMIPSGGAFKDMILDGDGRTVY
The description is as above. Conditions: read-out: I50 (nM) Vg; partially purified ALS, 30° C., probit analysis. Here is the method: as §1, §2, §3, §4, §5, §6

The target in assay [3] is T2, mutant ALS protein of Rb line (Oryza sativa subsp. japonica, UniProt Q6K2E8, P171H, form not given).
T2 construct: other: partially purified ALS, 30° C., probit analysis
T2 sequence (Q6K2E8 whole entry P171H/W548L, form open): as the sequence (Q6K2E8 whole entry W548L, form open) above, with P171H counted along it
The assay is described as follows: Herbicide sensitivity of partially purified ALS protein (ALS activity inhibition), Rb line. Conditions: read-out: I50 (nM) Rb; partially purified ALS, 30° C., probit analysis. Here is the method:
as §1, §2, §3, §4, §5, §6

Assay [4] has as its system mutant ALS protein of Rb line. The description is as above. The following applies: I50 of the resistant mutant divided by I50 of the wild type. Here is the method:
as §1, §2, §3, §4, §5, §6

Consider `COc1cc(OC)nc(Oc2cccc(Oc3nc(OC)cc(OC)n3)c2C(=O)O)n1` [bispyribac-sodium], for which the “RS ratio Vg” value in assay [1] stood at 17.3. Besides, the results for the IC50 in assay [2] and in assay [3] were 97.2 nM and 247000 nM, respectively. Also, the “RS ratio Rb” value in assay [4] is given as 43900.
`COc1nc(C)nc(NC(=O)NS(=O)(=O)c2ccccc2Cl)n1` [chlorsulfuron]: the “RS ratio Vg” value in assay [1] came out at 28.6. Besides, the IC50 in assay [2] was found to be 495 nM; in assay [3], 32000 nM. In addition, the “RS ratio Rb” value in assay [4] is reported as 1850.
The matching figures for `CC(C)C1(C)N=C(c2nc3ccccc3cc2C(=O)O)NC1=O` (stereo not drawn) [imazaquin]: 29.8, 44100 nM, 609000 nM and 411.
